According to ChEMBL document CHEMBL3507680, “University of Dundee, Gates Library screen for HepG2 cell viability”:

Assay: Human HepG2 cell viability assay in 384 well format
Format: toxicity, cell-based
Design: dose 125 nL, time 70.5 hour; concentration not given beside the values
Conditions: HepG2 cells, read-out: Inhibition

NC1(C(=O)N2CCC(c3cc(-c4ccccc4Cl)n[nH]3)CC2)CCC1
cytotoxicity at 70.5 h: 46.9%

Cc1cc(NCCC(=O)NC2CCS(=O)(=O)C2)nc(-c2ccncc2)n1 (stereo unspecified)
cytotoxicity at 70.5 h: -8.91%

Cc1nc2cc(=O)[nH]n2c(C)c1CC(=O)Nc1ccc2ccccc2n1
cytotoxicity at 70.5 h: -6.2%

c1ccc2c(c1)CC(N1CCCC(NCc3ccc4nonc4c3)C1)C2 (stereo unspecified)
cytotoxicity at 70.5 h: -17.7%

CCS(=O)(=O)c1ncc(CN(C)CCc2ccccn2)n1CCOC
cytotoxicity at 70.5 h: -8.19%

CCCS(=O)(=O)N1CCn2cc(CNc3ccccn3)nc2C1
cytotoxicity at 70.5 h: -2.49%

COCCc1noc(CN2CCCC2Cn2cccn2)n1 (stereo unspecified)
cytotoxicity at 70.5 h: -9.31%

COCC(=O)N[C@H](C)c1c(-c2ccc(OC)cc2)noc1C(=O)O
cytotoxicity at 70.5 h: -16.4%

CCc1nc(C)c(C(=O)N2CCCN(Cc3cnn(C)c3)CC2)s1
cytotoxicity at 70.5 h: -9%

COc1c(CC2CC(C(=O)O)=NO2)c(Br)c2c(c1OC)OCO2 (stereo unspecified)
cytotoxicity at 70.5 h: -7.83%

Cc1ccc(CN2CC[C@H]3CO[C@H](CN4CCCC4)[C@H]3C2)o1
cytotoxicity at 70.5 h: -8.76%

COc1ccc(CNCCc2ccn(-c3ccccc3)n2)cc1O
cytotoxicity at 70.5 h: -8.7%

CCS(=O)(=O)N1CCc2nc(C3CCN(C(=O)C4CC4)C3)nc(O)c2C1 (stereo unspecified)
cytotoxicity at 70.5 h: -1.94%

COC(=O)CNC(=O)CCc1cc(Br)cs1
cytotoxicity at 70.5 h: -3.56%

CC(C)NC(=O)c1cc2c(s1)CCN2c1ncccn1
cytotoxicity at 70.5 h: 3.85%

CO[C@H]1CN(C(=O)OC(C)(C)C)CC1NCc1ccco1 (stereo partly specified)
cytotoxicity at 70.5 h: -24.9%

O=C(c1ccccn1)N1CCN(c2cnnc(N3CCCC3)c2)CC1
cytotoxicity at 70.5 h: -10.9%

CC(C)N1CC[C@H](c2nc3ccc(C(F)(F)F)cc3[nH]2)C1
cytotoxicity at 70.5 h: -5.84%

CCC(CC)NC(=O)Cn1cc(C(N)=O)c(-c2ccccc2)n1
cytotoxicity at 70.5 h: 17.3%

CCN(C)c1ccc(CNC(=O)CCn2cc(C)cn2)cc1F
cytotoxicity at 70.5 h: -1.28%

c1cn(-c2ccc(CN3CCCC3)cc2)c(-c2cc3n(n2)CCNC3)n1
cytotoxicity at 70.5 h: -6.8%

COCC(=O)N1CCOC2(CCCN(c3cnccn3)C2)C1 (stereo unspecified)
cytotoxicity at 70.5 h: -9.25%

Cc1ccc(CN2CCc3c(C(=O)N(C)C)n[nH]c3C2)o1
cytotoxicity at 70.5 h: -8.34%

N#Cc1cccc(N2CCC3(CC2)Nc2ccccc2NC3=O)n1
cytotoxicity at 70.5 h: -5.8%

Cc1noc(C(C)N2CCN(Cc3cccc(C#N)c3)CC2)n1 (stereo unspecified)
cytotoxicity at 70.5 h: -5.03%

CC(NCCCN1CCCC1=O)c1cc(Br)ccc1F (stereo unspecified)
cytotoxicity at 70.5 h: -5.24%

O=C(c1ccncc1)N1C[C@@H]2CCN(c3cccnc3)C[C@@H]2C1
cytotoxicity at 70.5 h: -16.9%

O=C(NCc1ccccc1CN1CCC(O)CC1)Nc1ccccc1
cytotoxicity at 70.5 h: -0.116%

O=C(Cc1ccccc1Cl)Nc1cnn(C2CCOC2)c1 (stereo unspecified)
cytotoxicity at 70.5 h: -14%

O=C(Cc1cccs1)N1C[C@@H]2OCCN(CC3CCCO3)[C@@H]2C1 (stereo partly specified)
cytotoxicity at 70.5 h: -1.51%

O=C(Cn1cc(C2CC2)nn1)N(Cc1ccco1)Cc1cccs1
cytotoxicity at 70.5 h: -2.55%

CCOC(=O)[C@@H]1[C@@H](O)C(=O)N(C)C12CCN(C(=O)OC)CC2
cytotoxicity at 70.5 h: -10.2%

CCNC(=O)C1CCN(c2cc(-c3ccccc3)nc3ccnn23)C1 (stereo unspecified)
cytotoxicity at 70.5 h: -0.497%

CN(c1cccnn1)C1CCN(C(=O)c2n[nH]c3c2CCC3)CC1
cytotoxicity at 70.5 h: -4.09%

Cc1cc(CNC(=O)CCc2ccc(S(N)(=O)=O)cc2)no1
cytotoxicity at 70.5 h: -11.1%

CCCc1nc(CN(CCO)Cc2cc(Br)ccc2F)no1
cytotoxicity at 70.5 h: -13.1%

CCN(CC)Cc1ccc(C(=O)N2CCN(CC(C)O)CC2)o1 (stereo unspecified)
cytotoxicity at 70.5 h: -5.77%

CC(C)c1nc(C2CCCN2C(=O)c2ccc3nncn3c2)no1 (stereo unspecified)
cytotoxicity at 70.5 h: 2.23%

CCCc1nc(C(=O)N(C)Cc2cnn(-c3cccc(OC)c3)c2)cs1
cytotoxicity at 70.5 h: -8.69%

CCCS(=O)(=O)CC(=O)N1CCN(CC2CC2)c2ccccc21
cytotoxicity at 70.5 h: -7.98%

Cc1nn(C)c(N2CCOCC2)c1CNCc1ccc(C(C)O)cc1 (stereo unspecified)
cytotoxicity at 70.5 h: -11.7%

O=C(NCCc1cnccn1)c1ccc(S(=O)(=O)NC2CCC2)cc1
cytotoxicity at 70.5 h: 18.7%

CC(Cn1cccn1)NC(=O)NCCCN1CCc2ccccc2C1 (stereo unspecified)
cytotoxicity at 70.5 h: 14.2%

O=C(c1cccc(F)c1Cl)N(CCO)CC1CC1
cytotoxicity at 70.5 h: -1.98%

CCc1ncncc1C(=O)N1CCCN(Cc2ccccc2C)CC1
cytotoxicity at 70.5 h: -8.2%

Cc1ccc(F)cc1CC(=O)N(CCN1CCOCC1)Cc1ccco1
cytotoxicity at 70.5 h: -6.95%

O=C(c1ccc(C2CCCN2C(=O)c2ccc[nH]2)s1)N1CCSCC1 (stereo unspecified)
cytotoxicity at 70.5 h: -19.6%

CCOc1ccc(OCC(O)CN2CCN(S(C)(=O)=O)CC2)cc1 (stereo unspecified)
cytotoxicity at 70.5 h: 0.695%

CCOC1CCN(C(=O)c2ccc(-c3cccc(C)c3)[nH]c2=O)CC1
cytotoxicity at 70.5 h: -8.75%

CCOc1ccccc1C(C(=O)O)N(C)Cc1nc(C)c[nH]1 (stereo unspecified)
cytotoxicity at 70.5 h: -6.68%

Cc1cnn(C2CCCN(C(=O)c3ccc(-n4cccn4)nc3)C2)c1 (stereo unspecified)
cytotoxicity at 70.5 h: -11.3%

Cc1nc(-c2ccccc2C)n(CC(=O)NC2CCCC2)n1
cytotoxicity at 70.5 h: 19%

CCc1csc(C2CCCN(C(=O)c3ccco3)C2)n1 (stereo unspecified)
cytotoxicity at 70.5 h: 17.1%

Cc1cc(C(F)(F)F)cc(N2C[C@@H](CN(C)CCO)[C@@H](CO)C2)n1
cytotoxicity at 70.5 h: 2.18%

Cc1cncc(C(=O)N2C[C@H]3CCC[C@@]3(COc3ccccn3)C2)c1
cytotoxicity at 70.5 h: 7.93%

Cc1cc(C(=O)Nc2ccnc(OC3CCOC3)c2)c(C)o1 (stereo unspecified)
cytotoxicity at 70.5 h: -1.8%

Cn1cc(C(=O)NCC2CCN(C(=O)NC3CCCCC3)CC2)cn1
cytotoxicity at 70.5 h: -15.9%

O=C(NCCc1c[nH]cn1)c1ccc2c(c1)C(=O)N(C1CCCC1)C2=O
cytotoxicity at 70.5 h: -1.68%

O=c1c(NCCc2ccc(O)cc2)c(NCc2ccccn2)c1=O
cytotoxicity at 70.5 h: 6.43%

Cc1cnn(CC2CCCN2C(=O)Cn2nc(C)c(Cl)c2C)c1 (stereo unspecified)
cytotoxicity at 70.5 h: -1.94%

Cc1ccc(OCCN(C)C2CCOC2=O)cc1 (stereo unspecified)
cytotoxicity at 70.5 h: -5.65%

CCn1cnnc1CNC(=O)NC(C)c1ccc(Cl)s1 (stereo unspecified)
cytotoxicity at 70.5 h: -0.949%

CCN1N=C(C(=O)N2CCCC(c3noc(C)n3)C2)CCC1=O (stereo unspecified)
cytotoxicity at 70.5 h: 22.2%

O=C(NC1CC1)[C@H]1C[C@H]2OCC[C@H]2N(CC2CC2)C1
cytotoxicity at 70.5 h: 13.9%

CCCN1CC2(CCN(C)CC2)CC1C(=O)NCCn1cc(C)cn1 (stereo unspecified)
cytotoxicity at 70.5 h: -4.52%

Cc1cc(C)n(CC(C)NC2CCN(Cc3cccc(O)c3)CC2)n1 (stereo unspecified)
cytotoxicity at 70.5 h: -7.84%

CCc1ccc(CN(C)C(=O)C2CC(=O)N(c3cccc(O)c3)C2)nc1 (stereo unspecified)
cytotoxicity at 70.5 h: -0.196%

CCC(=O)NC(c1cccnc1)c1cc(C)ccc1C (stereo unspecified)
cytotoxicity at 70.5 h: -12.3%

CCOCCOc1ccccc1C(=O)N1CCCC(c2ncc[nH]2)C1 (stereo unspecified)
cytotoxicity at 70.5 h: -5%

COCCC(=O)N1CCC2(CCN(Cc3ccc(C)cc3)CC2)C1
cytotoxicity at 70.5 h: -7.89%

CSC(C)C(=O)N1CCC(Oc2cc(C)ccc2F)(C(=O)O)CC1 (stereo unspecified)
cytotoxicity at 70.5 h: -7.76%

N#Cc1cc(F)c(NCCc2ccc(F)cc2)c(F)c1
cytotoxicity at 70.5 h: -2.9%

N#Cc1c(Cl)nsc1NCc1ccc(N2CCCC(C(N)=O)C2)cc1 (stereo unspecified)
cytotoxicity at 70.5 h: -2.18%

Cc1nc(N2CCCC2)nc2c1CCN(C(=O)c1ccoc1C)CC2
cytotoxicity at 70.5 h: 1.32%

CCCN1CCC(NC(=O)c2ccc(F)cc2I)CC1
cytotoxicity at 70.5 h: -6.74%

CCC(CO)N(Cc1cccs1)C(=O)Cc1ccncc1 (stereo unspecified)
cytotoxicity at 70.5 h: -8.11%

CCn1cc(C(=O)Nc2cc(C(=O)OC)ccc2C(=O)OC)cn1
cytotoxicity at 70.5 h: -9%

CC(C)c1ocnc1C(=O)NC1(c2cccc(F)c2)CCOCC1
cytotoxicity at 70.5 h: -3.27%

O=C(Cc1ccccc1F)N1CCN(C(=O)c2cccc(F)c2)CC1
cytotoxicity at 70.5 h: 38%

CN(C)C(=O)CCCNC(=O)C(c1cccc(F)c1)N(C)C (stereo unspecified)
cytotoxicity at 70.5 h: 3.05%

COc1ccnc(N2CCCN(C(=O)CCc3cnn(C)c3)CC2)n1
cytotoxicity at 70.5 h: -10.3%

O=C1NC2(CCN(C(=O)c3ccccc3)CC2)CC1c1cccnc1 (stereo unspecified)
cytotoxicity at 70.5 h: 2.71%

CCN1CC[C@@]2(C(=O)Nc3ccccc3)CCN(S(C)(=O)=O)CC[C@@H]12
cytotoxicity at 70.5 h: -17.9%

CNC(=O)[C@H]1C[C@@H]2CN(Cc3cccc(C)c3)C[C@H]1O2
cytotoxicity at 70.5 h: -6.34%

CN(C)Cc1ccc(C2CCCCN2C(=O)c2cc(=O)[nH]c(=O)[nH]2)cc1 (stereo unspecified)
cytotoxicity at 70.5 h: -5.8%

CC(C)CN1CCc2[nH]nc(C(=O)N3CCCC3)c2C1
cytotoxicity at 70.5 h: 28.7%

CCOC(=O)C1(Cc2ccc(Cl)cc2)CCN(Cc2ncc[nH]2)CC1
cytotoxicity at 70.5 h: -10.4%

COc1ccccc1OCCNC(=O)NCc1nc(C)no1
cytotoxicity at 70.5 h: -6.75%

Cc1nc(CN(C)C2CCN(Cc3nc(C4CC4)no3)C2)no1 (stereo unspecified)
cytotoxicity at 70.5 h: -1.35%

O=C(O)[C@@H]1CN(Cc2c[nH]c(CC3CCCC3)n2)C[C@H]1c1ccccn1
cytotoxicity at 70.5 h: 17.2%

Cc1cc(C)nc(NC2CCC(=O)N(C)C2)n1 (stereo unspecified)
cytotoxicity at 70.5 h: -8.23%

COc1ccc(CCNC(=O)NCC(O)c2cccc(F)c2)cc1 (stereo unspecified)
cytotoxicity at 70.5 h: 8.74%

Fc1ccc(C(CNc2ccncn2)N2CCCC2)cc1 (stereo unspecified)
cytotoxicity at 70.5 h: 12.7%

O=C1COC[C@H]([C@H](O)c2ccc(NC(=O)c3ccco3)cc2)N1
cytotoxicity at 70.5 h: -0.619%

CCCn1ncc(-c2ccnc(NC3CCCc4ccccc43)n2)c1C (stereo unspecified)
cytotoxicity at 70.5 h: 55.9%

CCc1nnc2n1CCN(C(=O)c1cc3ccc(C)cc3[nH]1)C2
cytotoxicity at 70.5 h: -12.2%

CN(C)c1ccc(C(=O)N2CCCC2c2ccc(Cl)cc2)cc1 (stereo unspecified)
cytotoxicity at 70.5 h: -4.22%

COc1cccc(CCC(=O)Nc2cnc3c(c2)c(C)nn3C)c1OC
cytotoxicity at 70.5 h: -14.1%

CC(C)NC(=O)N1CCN2C(=O)N(Cc3ccc(F)cc3)C[C@H]2C1
cytotoxicity at 70.5 h: -4.66%

CC1CN(C(=O)NCc2ccn(C)c2)CCN1CC(F)(F)F (stereo unspecified)
cytotoxicity at 70.5 h: 32.3%

CN(C)C[C@@H]1CN(C(=O)CCC2CCCC2)C[C@@H]1CO
cytotoxicity at 70.5 h: 20.2%

CC(=O)Nc1nc(C(=O)NCCOc2cccc(F)c2)cs1
cytotoxicity at 70.5 h: -17.7%

CN(C(=O)Cn1nc(-c2ccc(Br)cc2)ccc1=O)C1CCS(=O)(=O)C1 (stereo unspecified)
cytotoxicity at 70.5 h: -22.4%

CS(=O)(=O)CCn1ccc(NC(=O)Cc2ccccc2Cl)n1
cytotoxicity at 70.5 h: -1.99%

CCOCc1cccc(S(=O)(=O)N2CCSCC2)c1
cytotoxicity at 70.5 h: -3.6%

O=C(NC1CCC1)[C@H]1C[C@@H]2CN(CC3CC3)C[C@H]1O2
cytotoxicity at 70.5 h: -0.535%

Cc1csc(CCCNC(=O)[C@H]2CNC[C@@H](C(=O)N3CCCC3)C2)n1
cytotoxicity at 70.5 h: -9.44%

O=C(CN1CCN(c2ccccc2F)CC1)Nc1ccc(Cl)cn1
cytotoxicity at 70.5 h: 11.6%

COc1cc(C#N)ccc1OC12CCCN(CC1)C2 (stereo unspecified)
cytotoxicity at 70.5 h: -8.26%

O=C(Nc1nncs1)N1CCCN(C2CCCCC2)CC1
cytotoxicity at 70.5 h: -12.6%

NC(=O)C(CNC(=O)CCc1ccsc1)Cc1ccc(F)cc1 (stereo unspecified)
cytotoxicity at 70.5 h: 21%
